One assay has as its system NIH 3T3 EF cells. Kind of assay: F-actin network rescue, FITC-phalloidin fluorescence microscopy. Type of assay: cell-based. Conditions: non cytotoxic concentrations (100 nM and 200 nM), three days. The protocol:
Malignant NIH 3T3 EF cells were seeded onto glass cover slips at a density of 2000 cells per cm^2. The next day, BA016DD537 was applied to NIH 3T3 EF cells at various non cytotoxic concentrations (100 nM and 200 nM). Three days later, cells were fixed for 10 min in PBS containing 3.7% formaldehyde at 4° C. before examination with a fluorescence microscope. The formaldehyde solution was neutralized with 50 mM NH4Cl. Extraction was carried out for 4 min with 0.4% Triton X-100 in PBS. Cells were incubated for 1 h with blocking buffer (3% bovine serum albumin in PBS) and then for 20 min with FITC-phalloidin (Sigma) at room temperature. Cover slips were mounted in Vectashieldk (Zymed) and observed through a fluorescence microscope (Nikon).

Assay [1] deals with B16BL6 melanoma cell line. Kind of assay: MTT cell viability, combination with retinoids. Type of assay: cell-based. The method, then:
The ex vivo cell viability inhibition by BA016DD537 in the presence of the retinoids 13CRA and ATRA was tested against B16BL6 melanoma cell line using the 3-(4,5 dimethylthiazol-2-yl)-2,5-diphenyl-2H-tetrazolium bromide (MTT) calorimetric assay.
About 1000 cells were seeded in a 96-well culture plate 24 hours before adding increasing concentrations of BA016DD537, from 1 pM to 100 pM, in the absence or in the presence of 10 nM of retinoids. The plate was incubated at 37° C. for 3 days. 10 μl MTT stock solution (5 mg/ml in phosphate buffer saline) was added to 90 μl of complete medium in each well, the incubation was continued for 3 h at 37° C. 100 μl of lysis buffer (20% sodium dodecyl sulfate, 10 mM HCl, 1×PBS) was added to each well, and the plate was incubated overnight. The absorbance was determined using an Integrated EIA Management System (Labsystem) at a wavelength of 570 nm.

The next assay relates to NCI-H187. Briefly: SRB (sulforhodamine B) cell proliferation assay. It counts as cell-based, human. Conditions: NCI-H187, viability 72 h, mean +/− SEM. The method, then:
(§1) Growth studies were performed using the Sulforhodamine B (SRB) calorimetric assay (Sigma).
(§2) SRB assay is used for cell density determination based on the measurement of cellular protein content. This method has been optimized for toxicity screening of compounds in adherent cells in a 96-well format (Skehan et al., Proc. Amer. Assoc. Cancer Res. 1989, 30:2436).
(§3) About 50 000 NCI-H510, NCI-H446 or NCI-H187 cells were seeded in a 96-well culture plate while adding increasing concentrations of BA016FZ539.
(§4) After an incubation period, cell monolayers are fixed with 10% (wt/vol) trichloroacetic acid and stained for 30 min, after which the excess dye is removed by washing repeatedly with 1% (vol/vol) acetic acid. The protein-bound dye is dissolved in 10 mM Tris base solution for optic density determination (OD) at 510 nm using a microplate reader.
(§5) The proliferation rates were calculated from the OD readings using the untreated cells as 100%.

The test system of a further assay is NCI-H446. Kind of assay: SRB (sulforhodamine B) cell proliferation assay. Type of assay: cell-based, human. Conditions: NCI-H446, viability 72 h, mean +/− SEM. The method, then: as §1, §2, §3, §4, §5
Another assay concerns NCI-H510. Kind of assay: SRB (sulforhodamine B) cell proliferation assay. Type of assay: cell-based, human. Conditions: NCI-H510, viability 72 h, mean +/− SEM. The protocol:
as §1, §2, §3, §4, §5

In the next assay the test system is Mia Paca-2. Kind of assay: SRB (sulforhodamine B) cell proliferation assay. It counts as cell-based, human. The method, then:
as §4, §5
(§6) The effects BA016FZ539 on the growth of MIA PaCa-2 and PANC-1 pancreatic cells were tested over a range of concentrations from 500 μM to 0.16 μM and measured by using the SRB calorimetric assay.
(§7) About 5000 MIA PaCa-2 or PANC-1 cells were seeded in a 96-well culture plate while adding increasing concentrations of BA016FZ539.
(§8) Growth studies were performed using both MTT and SRB calorimetric assay (Sigma). About 1500 B16F10 or 3000 pancreatic cells (MIA PaCa-2 and PANC1) were seeded in a 96-well culture plate before adding increasing concentrations of monomesylate or bimesylate.
(§9) The plates were incubated at 37° C. for 3 days and then were treated depending on SRB or MTT protocols (see material and methods).
(§10) In these two cases, the proliferation rates were calculated from the OD readings using the untreated cells as 100%.

A further assay concerns PANC-1. Briefly: SRB (sulforhodamine B) cell proliferation assay. It counts as cell-based, human. The method, then: as §4, §5, §6, §7, §8, §9, §10
Assay [2] deals with B16F10 cell pulmonary metastases. Kind of assay: antimetastatic activity, B16F10 pulmonary metastases after i.v. injection. Type of assay: in vivo, mice. The method, then:
In order to assess the anti-invasive property, the effect of 2-(beta piperidino-2-ethyl)-9-hydroxyellipticinium methanesulfonate on this process has been tested.
100 μl of a B16F10 cellular suspension (4.10^5 cells) were injected using i.v. route into the retro-orbital sinus of the mice. The 2-(beta piperidino-2-ethyl)-9-hydroxyellipticinium methanesulfonate (BA016FZ539) solution was administrated i.v to mice 24 hours and 72 hours after cell injection at a dose of 5 mg/Kg (first experiment) and 7.5 mg/kg (second experiment). In control group, mice were injected iv with physiological serum. Seven days later, the mice were sacrificed, the lungs were excised and metastatic nodules were counted under a dissecting microscope.

Where two headings read alike, the source gives them in different places.

In the case of `Cc1c2cc[n+](CCN3CCCCC3)cc2c(C)c2c1[nH]c1ccc(O)cc12.[Cl-]` [BA016DD537, 2-(β-piperidinoethyl)-9-hydroxyellipticinium chloride], the “rebuilding of actin network / morphology” value with NIH 3T3 EF cells is “able to rebuilt actin network in tumor cells at non cytotoxic concentration”. Besides, the “decrease of dose when used in combination with retinoids for the same results” value in assay [1] (100 nM alone vs 1 pM in the presence of ATRA 10 nM) is listed as 100 000 fold. In assay [1] (lower doses in the presence of 10 nM retinoids (13CRA, ATRA)), the “tumoral cell viability inhibition (MTT)” value is reported as “increased tumoral cell viability inhibition”.
Usually IC50 stands for the concentration that gives 50% inhibition. For `CS(=O)(=O)[O-].Cc1c2cc[n+](CCN3CCCCC3)cc2c(C)c2c1[nH]c1ccc(O)cc12` [BA016FZ539, 2-(betapiperidino-2-ethyl)-9-hydroxyellipticinium methanesulfonate], the concentration for half-maximal inhibition (IC50) in the assay on NCI-H187 was 16.9 µM; with NCI-H446, 22.4 µM; in the assay with NCI-H510, 5.8 µM; in the assay with Mia Paca-2 (MIA PaCA-2, viability 72 h, mean +/− SEM (Example 9), read-out: IC50 (μM) SRB), 10.2 µM; in the assay with Mia Paca-2 (Mia Paca-2 (Example 11), read-out: IC50 (SRB Test-72 h)), 5.6 µM; with PANC-1 (PANC-1 (Example 11), read-out: IC50 (SRB Test-72 h)), 50.4 µM. Also, the IC50 with PANC-1 (PANC-1, viability 72 h, mean +/− SEM (Example 9), read-out: IC50 (μM) SRB) was 20.7 µM. The “Inhibition of pulmonary metastases development (% of control values)” value in assay [2] (Experiment 1, 5 mg/kg/inj. i.v. J1, J3, p = 0.0904) was 21% (p = 0.0904); in assay [2] (Experiment 2, 7.5 mg/kg/inj. i.v. J1, J3, p = 0.3269), 39.6% (p = 0.3269).

The values are drawn from patent US20090197906A1, “REVERSION OF MALIGNANT PHENOTYPE WITH 9-HYDROXY ELLIPTICINE DERIVATIVES” (priority 2006, published 2009).
